Experimental data published in ChEMBL document CHEMBL4680140, “Minor chemical modifications of the aminosteroid derivative RM-581 lead to major impact on its anticancer activity, metabolic stability and aqueous solubility” (Eur J Med Chem, 2020).
In brackets after ≈: the same amount, converted by molar mass.

Legend:
Assay type in all cases: physicochemical
[1] = Solubility of compound in PBS at pH 7.4 at 300 uM after 24 hrs by HPLC-UV analysis
[2] = Solubility of compound in PBS at pH 7.4
[3] = Solubility of compound in PBS at pH 7.4 by shake flask method

With `CC(C)C(=O)Nc1ccc([N+](=O)[O-])c(C(F)(F)F)c1` [FLUTAMIDE] the solubility at 24 h, 300 µM [1] was 19.9 µg/mL (≈ 72 µM) and the solubility [2] was 19.9 µg/mL (≈ 72 µM).
For `COc1ccc(Cl)cc1C(=O)NCCc1ccc(S(=O)(=O)NC(=O)NC2CCCCC2)cc1` [GLYBURIDE], the solubility thermodynamic [3] was 5.6 µg/mL (≈ 11.3 µM) and the solubility at 24 h, 300 µM [1] was 6.7 µg/mL (≈ 13.6 µM).
